Data from patent publication US20150125589A1, “TASTE-IMPROVING AGENT AND FOOD OR DRINK CONTAINING SAME” (NIPPON SUISAN KAISHA, LTD., priority 2011, published 2015).

How the values were obtained:
[1] = Evaluation method 2: quantitating improvement of unpleasant flavor of potassium chloride as K/Na ratio against standard solutions, chicken stock soup; settings: for improvement effect against the unpleasant flavor of potassium chloride: glycoside or aglycone 25 ppm final in standard solution 8, FIG. 17
Description: 1.32 g of Chinese soup stock granules (product name=“Marudori-gara Soup”, manufactured by Ajinomoto K.K., standard nutritional ingredients of 2.5 g of Chinese soup stock granules are shown in Table 1) was dissolved in 70 g of distilled water, and the mixture was filtered through filter paper (filter paper no. 2, manufactured by Advantec Toyo K.K.). Thereafter, 0.63 g of NaCl was added, and water was further added to obtain 100 g of chicken stock soup containing an equivalent of 1.26 percent table salt (Table 2, standard solution 1). The concentration of sodium chloride was decreased in a stepwise manner from the composition of the standard solution 1, and potassium chloride was added to produce multiple chicken stock soups (Table 2, standard solutions 2 to 8). The ratio of potassium chloride to sodium chloride ((potassium chloride concentration/sodium chloride concentration)×100(%), referred to hereinafter as “K/Na ratio”) was changed in standard solutions 1 to 8, and the intensity of the unpleasant flavor (i.e. bitterness, astringent taste, harsh taste, and bitter taste) characteristic of potassium chloride increased as the K/Na ratio value increased. The unpleasant flavor intensity increased in a stepwise manner for standard solutions 1 to 8. Intensity of this unpleasant flavor and detailed taste were evaluated by organoleptic evaluation by an expert panel, and results of evaluation were classified in three stages, i.e. initial taste, middle taste, and aftertaste.
A desired concentration of test solution was added to one of the standard solutions of Table 2 to produce an evaluation solution. At this time, for a test sample containing sodium chloride or potassium chloride, the evaluation solution was adjusted such that the total sodium chloride concentration or total potassium chloride concentration of the evaluation solution was equivalent to the respective standard solution. The standard solutions 1 to 8 of Table 2 are indicated in order of potassium chloride concentration. These evaluation solutions were compared to the standard solution, and the corresponding unpleasant flavor of potassium chloride was expressed as a K/Na ratio. The improvement effect was indicated as higher as the ratio of K/Na ratio obtained by evaluation to actual K/Na ratio decreased.

[2] = Evaluation method 1: expert panel ranking of potassium chloride unpleasant flavor intensity (normalized rank method), chicken stock soup; settings: for effect of phospholipid for improvement of unpleasant flavor of potassium chloride: phospholipid 0.02 percent in standard solution 8, FIG. 21
[3] = Unpleasant taste distinguishable concentration of potassium chloride, blind ranking by panel; settings: chicken stock soup models, panel n=11; FIG. 28
Description: 1.32 g of Chinese soup stock granules (product name=“Marudori-gara Soup”, manufactured by Ajinomoto K.K., standard nutritional ingredients of 2.5 g of Chinese soup stock granules are shown in Table 1) was dissolved in 70 g of distilled water, and the mixture was filtered through filter paper (filter paper no. 2, manufactured by Advantec Toyo K.K.). Thereafter, 0.63 g of NaCl was added, and water was further added to obtain 100 g of chicken stock soup containing an equivalent of 1.26 percent table salt (Table 2, standard solution 1). The concentration of sodium chloride was decreased in a stepwise manner from the composition of the standard solution 1, and potassium chloride was added to produce multiple chicken stock soups (Table 2, standard solutions 2 to 8). […] Intensity of this unpleasant flavor and detailed taste were evaluated by organoleptic evaluation by an expert panel, and results of evaluation were classified in three stages, i.e. initial taste, middle taste, and aftertaste.
Standard solutions 1 to 7 (with the exception of standard solution 2) were evaluated by a panel (n=11) by blind-testing to determine the order of potassium chloride unpleasant flavor intensity.

Compound	improvement effect against the unpleasant flavor of potassium chloride [1]	effect of phospholipid for improvement of unpleasant flavor of potassium chloride [2]	further results
O=c1cc(-c2ccc(O)cc2)oc2cc(O[C@@H]3O[C@H](CO)[C@@H](O)[C@H](O)[C@H]3O)cc(O)c12 [apigenin 7-glucoside, Apigenin 7-glucoside]	high effect		
O=c1cc(-c2ccc(O)cc2)oc2cc(O)cc(O)c12 [apigenin, Apigenin]	high effect		
O=c1c(-c2ccc(O)cc2)coc2cc(O[C@@H]3O[C@H](CO)[C@@H](O)[C@H](O)[C@H]3O)ccc12 [daidzin, Daidzin]	high effect		
O=c1cc(-c2ccc(O)cc2)oc2cc(O[C@@H]3O[C@H](CO)[C@@H](O)[C@H](O)[C@H]3O[C@@H]3OC[C@](O)(CO)[C@H]3O)cc(O)c12 [fraction 13, apiin]	particularly high effect		unpleasant flavor improvement effect of parsley extract fraction relative to its parent solution ([2]; fraction aqueous solution added at 15 percent by weight to standard solution 8, FIG. 12-15): equivalent to that of the evaluation solution 9; added amount at which near maximum unpleasant flavor improvement effect was reached ([1]; 25, 50, 125, 250 ppm in standard solution 8, FIG. 16): ≥ 125 ppm
C[C@@H]1O[C@@H](O[C@H]2[C@H](Oc3cc(O)c4c(c3)O[C@H](c3ccc(O)cc3)CC4=O)O[C@H](CO)[C@@H](O)[C@@H]2O)[C@H](O)[C@H](O)[C@H]1O [naringin, Naringin, reference compound]	improvement effect was not found		
[Cl-].[K+] [potassium chloride]			K/Na ratio at which unpleasant flavor of potassium chloride was not generally recognized [3]: less than or equal to 57%
Phosphatidic acid [PA, reference compound]		low	
Phosphatidylcholine [PC]		high effects	
Phosphatidylethanolamine [PE]		high effects	
Phosphatidylinositol [PI]		high effects	
Phosphatidylserine [PS]		high effects	
